Source: the NIST ThermoML archive (doi:10.1021/je100991y)
Numbers after ± are expanded uncertainties.

Columns and labels:
[1] = refractive index (Na D-line) (dimensionless); conditions: 101.33 kPa, Liquid, Standard Abbe refractometry
[2] = refractive index (Na D-line) (dimensionless); wn = mass fraction of the nth substance listed; conditions: 95 kPa, Liquid, Standard Abbe refractometry

## CCOP(=O)([O-])OCC.CCn1cc[n+](C)c1 [1-ethyl-3-methylimidazolium diethyl phosphate]
[1]; 298.2 K
  refractive index: 1.4733 ± 0.0006
[1]; 313.2 K
  refractive index: 1.4691 ± 0.0006

## CCCCCCCCCCCC [dodecane] + Cc1cccc2c1sc1c(C)cccc12
[2]; 298.2 K, w2 = 0
  refractive index: 1.4196 ± 0.0006
[2]; 313.2 K, w2 = 0
  refractive index: 1.4131 ± 0.0006

## Cc1cccc2c1sc1c(C)cccc12 [4,6-dimethyldibenzo[b,d]thiophene] + CCCCCCCCCCCC
[2]; 298.2 K, w1 = 0.0037
  refractive index: 1.4201 ± 0.0006
[2]; 298.2 K, w1 = 0.0062
  refractive index: 1.4206 ± 0.0006
[2]; 298.2 K, w1 = 0.0089
  refractive index: 1.421 ± 0.0006
[2]; 313.2 K, w1 = 0.0037
  refractive index: 1.4137 ± 0.0006
[2]; 313.2 K, w1 = 0.0062
  refractive index: 1.4141 ± 0.0006
[2]; 313.2 K, w1 = 0.0089
  refractive index: 1.4146 ± 0.0006

## CCOS(=O)(=O)[O-].CCn1cc[n+](C)c1 [1-ethyl-3-methylimidazolium ethyl sulfate]
[1]; 298.2 K
  refractive index: 1.4789 ± 0.0011
[1]; 313.2 K
  refractive index: 1.4745 ± 0.0011

## CCCCCCCCCCCC [dodecane]
[1]; 298.2 K
  refractive index: 1.4196 ± 0.0006
[1]; 313.2 K
  refractive index: 1.4131 ± 0.0006
